# Test results as given in patent US5476966A, “Method for depletion of glutathione” (Cornell Research Foundation, Inc., priority 1995, dated 1995).
# pKi: −log10 of the molar value.
# Experiments:
# [1] = test system: mouse L1210 leukemia cells; conditions: resistant cells treated with BSO; cited from earlier work
# glutathione [2] = test: Tissue glutathione levels after intraperitoneal administration of sulfoximines; format: in vivo, mouse; conditions: 2 mmol/Kg i.p.
# Procedure: Male mice (Swiss Webster) were fasted overnight (about 16 hr). L-3-methylbuthionine-SR-sulfoximine (3 mBSO; L-S-3-methylbutyl homocysteine-SR-sulfoximine; L-S-isopentyl homocysteine-SR-sulfoximine), L-buthionine-SR-sulfoximine(BSO; L-S-butyl homocysteine-SR-sulfoximine), L-2-methylbuthiomine-SR-sulfoximine (2 mBSO, L-S-2methylbutyl homocysteine-SR-sulfoximine), or saline (0.9% NaCl) were administered to mice at 2 mmol/Kg intraperitoneally (50 mM, Ph ^~ 7). At the times indicated, plasma and tissues were obtained and assayed for glutathione (GSH+1/2 GSSG) as described by Anderson, Methods in Enzymology, 1985, 113:548-555.
# [3] = test system: human lymphoid cell lines; conditions: cited from earlier work
# [4] = test system: human ovarian cancer cells; conditions: cited from earlier work
# resistant cells = conditions: glutathione depletion by BSO; cited from earlier work
# [5] = Detection of compound in mouse bile; format: in vivo
# Trypanosoma brucei = conditions: six mice treated, cited from earlier work
# V79 cells = conditions: cited from earlier work
# [6] = test system: human lymphoid cell lines; conditions: cited from earlier work; remark: listed apart in the source
# tumor cell lines = conditions: glucose oxidase, activated macrophages and granulocytes with phorbol myristate acetate; cited from earlier work
# B16 melanomas = conditions: cited from earlier work
# [7] = test system: human ovarian tumor cells; conditions: grown in nude mice; cited from earlier work
# [8] = mice depleted of glutathione by buthionine sulfoximine; cited from earlier work
# glutathione [9] = test: Tissue glutathione after oral administration of sulfoximines (Table 4); format: in vivo, mouse; conditions: 2 mmol/Kg oral
# Procedure: Male mice (Swiss Webster) were fasted overnight (about 16 hr.) L-buthionine-SR-sulfoximine (BSO, S-n-butyl homocysteine-SR-sulfoximine), L-S-cyclohexylmethyl homocysteine-SR-sulfoximine (CHMSO); L-S-2-ethylbutylhomocysteine-SR-sulfoximine (2 EtBSO, L-S-2-ethylbutyl homocysteine-SR-sulfoximine, or saline (0.9% NaCl) were administered to mice at 2 mmol/Kg by intubation (100 mM; pH about 1 with HCl (200 mM). At the times indicated, plasma and tissues were obtained and assayed for glutathione (GSH+1/2 GSSG) as described by Anderson, Methods in Enzymology, 1985, 113:548-555. (See Table 4 and 5.)
# [10] = molecular target: T1, γ-Glutamylcysteine Synthetase (Rattus norvegicus, UniProt P19468); test: Inhibition of γ-glutamylcysteine synthetase (preincubation assay); format: biochemical; conditions: 30 min preincubation, 22° C.; read-out: Kiapp; Concentration for 50% Inhibition
# T1 construct: Rat kidney γ-Glutamylcysteine synthetase was purified from Sprague Dawley (Taconic Farms) rats; from tissue; host or cells: rat kidney (Sprague Dawley, Taconic Farms)
# T1 sequence (P19468 1-637): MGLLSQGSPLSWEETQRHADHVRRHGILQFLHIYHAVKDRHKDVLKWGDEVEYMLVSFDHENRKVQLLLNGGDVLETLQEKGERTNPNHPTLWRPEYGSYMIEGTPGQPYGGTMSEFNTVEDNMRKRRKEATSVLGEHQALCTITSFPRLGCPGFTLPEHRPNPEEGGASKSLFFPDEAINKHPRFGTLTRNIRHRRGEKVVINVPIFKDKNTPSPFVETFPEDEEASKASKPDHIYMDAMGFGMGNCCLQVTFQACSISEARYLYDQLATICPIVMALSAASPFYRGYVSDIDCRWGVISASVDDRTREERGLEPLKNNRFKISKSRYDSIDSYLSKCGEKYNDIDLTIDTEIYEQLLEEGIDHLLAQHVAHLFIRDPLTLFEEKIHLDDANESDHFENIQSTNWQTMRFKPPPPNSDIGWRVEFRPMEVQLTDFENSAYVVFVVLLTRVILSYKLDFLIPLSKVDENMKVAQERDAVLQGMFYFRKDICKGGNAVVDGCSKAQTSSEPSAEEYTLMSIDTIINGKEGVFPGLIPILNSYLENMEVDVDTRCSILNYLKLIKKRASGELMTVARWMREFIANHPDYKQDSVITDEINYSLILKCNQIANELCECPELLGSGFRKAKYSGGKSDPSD
# T1 sequence (P48508 1-274 partner): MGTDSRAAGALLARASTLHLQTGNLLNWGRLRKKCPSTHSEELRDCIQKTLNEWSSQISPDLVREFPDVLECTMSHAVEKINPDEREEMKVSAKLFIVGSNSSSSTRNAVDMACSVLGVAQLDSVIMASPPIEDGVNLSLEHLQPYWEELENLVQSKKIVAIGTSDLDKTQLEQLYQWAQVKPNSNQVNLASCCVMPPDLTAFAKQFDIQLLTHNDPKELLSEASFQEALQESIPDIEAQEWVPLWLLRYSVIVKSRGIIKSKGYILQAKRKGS
# Procedure: Rat kidney γ-Glutamylcysteine synthetase was purified from Sprague Dawley (Taconic Farms) rats (Seelig., Methods in Enzymology, 1985, 113:379-390).
# The preincubation assay of γ-glutamylcysteine synthetase is given below. γ-Glutamylcysteine synthetase (4.6 units) was added to a mixture (final volume, 50 μl) containing 100 mM Tris/HCl (pH 8.2), 5 mM ATP, 20 mM MgCl2, 0.2 mM EDTA, and the sulfoximine being evaluated. After incubation at 22° C. for 30 minutes, a 45 μl aliquot of the preincubation mixture was added to the assay as follows.
# γ-Glutamylcysteine synthetase was assayed as follows (Griffith et al, J. Biological Chem., 1979, 254:1205-1210). The reaction mixture (final volume, 1.0 ml) contained 100 mM Tris/HCl (pH 8.2), 120 mM KCl, 5 mM phosphoenolpyruvate, 20 mM MgCl2, 10 mM sodium L-glutamate, 10 mM L-α-aminobutyric acid, 0.2 mM EDTA, 0.4 mM NADH, pyruvate kinase (10 IU), and lactate dehydrogenase (10 IU). The reaction (37° C.) was initiated by the addition of γ-glutamylcysteine synthetase and the oxidation of NADH, equivalent to ADP formation, was recorded at 340 nm.
structure (smiles),measurement,setting,value
"CCCCS(=N)(=O)CCC(N)C(=O)O [BSO, L-S-butyl homocysteine-SR-sulfoximine]",sensitivity of resistant cells to phenylalanine mustard,[1],resensitization of the tumor cells to phenylalanine mustard
same,% Decrease in glutathione,"glutathione [2]; brain, 2 hr",10%
same,Glutathione level,"glutathione [2]; brain, 2 hr",2.08 µmol/g
same,% Decrease in glutathione,"glutathione [2]; brain, 12 hr",17%
same,Glutathione level,"glutathione [2]; brain, 12 hr",1.93 µmol/g
same,% Decrease in glutathione,"glutathione [2]; heart, 2 hr",14%
same,Glutathione level,"glutathione [2]; heart, 2 hr",1.16 µmol/g
same,% Decrease in glutathione,"glutathione [2]; heart, 12 hr",57%
same,Glutathione level,"glutathione [2]; heart, 12 hr",0.56 µmol/g
same,% Decrease in glutathione,"glutathione [2]; kidney, 2 hr",82%
same,Glutathione level,"glutathione [2]; kidney, 2 hr",0.76 µmol/g
same,% Decrease in glutathione,"glutathione [2]; kidney, 12 hr",79%
same,Glutathione level,"glutathione [2]; kidney, 12 hr",0.75 µmol/g
same,% Decrease in glutathione,"glutathione [2]; liver, 2 hr",72%
same,Glutathione level,"glutathione [2]; liver, 2 hr",1.50 µmol/g
same,% Decrease in glutathione,"glutathione [2]; liver, 12 hr",32%
same,Glutathione level,"glutathione [2]; liver, 12 hr",3.37 µmol/g
same,% Decrease in glutathione,"glutathione [2]; plasma, 2 hr",66%
same,Glutathione level,"glutathione [2]; plasma, 2 hr",10.1 µM
same,% Decrease in glutathione,"glutathione [2]; plasma, 12 hr",43%
same,Glutathione level,"glutathione [2]; plasma, 12 hr",16.3 µM
same,sensitivity to γ-radiation,[3]; cells with 4-5% of control glutathione,much more sensitive
same,sensitivity to radiation,[3]; glutathione about 5% of the control levels,marked increase in sensitivity to radiation
same,reversal of resistance,[4]; glutathione depletion with BSO,Reversal of resistance can be achieved
same,sensitivity of resistant cells to the drugs and to radiation,[4]; glutathione depletion,significantly increases the sensitivity of the resistant cells
same,reversal of drug resistance,resistant cells,reversal of drug resistance
same,detection in mouse bile,[5],no BSO was detected
same,cure of infected mice,Trypanosoma brucei,two mice were apparently cured
same,survival of infected mice,Trypanosoma brucei; versus untreated infected controls,four mice survived significantly longer
same,oxygen enhancement ratio,V79 cells,decrease of the oxygen enhancement ratio
same,sensitization to radiation,V79 cells; hypoxic conditions,sensitization to radiation under hypoxic conditions
same,disappeared intracellular glutathione found in the medium,"[6]; CEM line, L-serine plus borate in medium",About 50%
same,cell viability on further decrease in glutathione level,[6]; below 0.09 mM glutathione,marked loss of viability
same,cell viability,[6]; cells with 0.09 mM glutathione (4% of controls),85%
same,cellular glutathione as percent of control levels,"[6]; three human lymphoid cell lines, medium containing BSO, 50 hours",about 5%
same,degree of cytolysis,tumor cell lines,enhanced the degree of cytolysis
same,longevity,B16 melanomas; BSO plus irradiation,significant increase in longevity
same,tumor size,B16 melanomas; BSO plus irradiation,significant decrease in tumor size
same,tumor glutathione content relative to untreated controls,"B16 melanomas; when irradiated, tumors in footpads of mice",about 20%
same,reversal of resistance,[7],reversal of resistance
same,decrease in LD50 value of acetaminophen,[8],about 80%
same,% Decrease in glutathione,"glutathione [9]; brain, 2 hr",24%
same,Glutathione level,"glutathione [9]; brain, 2 hr",1.86 µmol/g
same,% Decrease in glutathione,"glutathione [9]; brain, 12 hr",18%
same,Glutathione level,"glutathione [9]; brain, 12 hr",1.73 µmol/g
same,% Decrease in glutathione,"glutathione [9]; kidney, 2 hr",80%
same,Glutathione level,"glutathione [9]; kidney, 2 hr",0.69 µmol/g
same,% Decrease in glutathione,"glutathione [9]; kidney, 12 hr",87%
same,Glutathione level,"glutathione [9]; kidney, 12 hr",0.45 µmol/g
same,% Decrease in glutathione,"glutathione [9]; liver, 2 hr",75%
same,Glutathione level,"glutathione [9]; liver, 2 hr",1.23 µmol/g
same,% Decrease in glutathione,"glutathione [9]; liver, 12 hr",78%
same,Glutathione level,"glutathione [9]; liver, 12 hr",1.10 µmol/g
same,% Decrease in glutathione,"glutathione [9]; plasma, 2 hr",59%
same,Glutathione level,"glutathione [9]; plasma, 2 hr",9.7 µM
same,% Decrease in glutathione,"glutathione [9]; plasma, 12 hr",69%
same,Glutathione level,"glutathione [9]; plasma, 12 hr",7.2 µM
same,pKi,[10],6.22
